Assay results from patent publication US8263606B2 (Xenon Pharmaceuticals Inc., priority 2008, dated 2012).

Key:
CYP3A4 = CYP3A4 (Homo sapiens, UniProt P08684); test: Cytochrome P450 (CYP450) Inhibition Assay, CYP3A4 (Vivid fluorescence, BOMCC substrate); conditions: human, P450 Baculosomes (recombinant CYP3A4), probe BOMCC (Vivid substrate)
sodium channel = test: Guanidine influx assay (14C-guanidine radiotracer flux, in vitro); type: cell-based, human or rat; conditions: guanidine influx assay using a known cell line that expresses a sodium channel
In short: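 Test agents at half-step dilutions around 1 μM are added to plated cells in low-sodium HEPES buffer, then an aconitine/14C-guanidine mixture; after ambient-temperature incubation, cells are washed and counted. IC50 comes from a sigmoidal fit.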

CYP3A4, sequence (P08684 whole entry): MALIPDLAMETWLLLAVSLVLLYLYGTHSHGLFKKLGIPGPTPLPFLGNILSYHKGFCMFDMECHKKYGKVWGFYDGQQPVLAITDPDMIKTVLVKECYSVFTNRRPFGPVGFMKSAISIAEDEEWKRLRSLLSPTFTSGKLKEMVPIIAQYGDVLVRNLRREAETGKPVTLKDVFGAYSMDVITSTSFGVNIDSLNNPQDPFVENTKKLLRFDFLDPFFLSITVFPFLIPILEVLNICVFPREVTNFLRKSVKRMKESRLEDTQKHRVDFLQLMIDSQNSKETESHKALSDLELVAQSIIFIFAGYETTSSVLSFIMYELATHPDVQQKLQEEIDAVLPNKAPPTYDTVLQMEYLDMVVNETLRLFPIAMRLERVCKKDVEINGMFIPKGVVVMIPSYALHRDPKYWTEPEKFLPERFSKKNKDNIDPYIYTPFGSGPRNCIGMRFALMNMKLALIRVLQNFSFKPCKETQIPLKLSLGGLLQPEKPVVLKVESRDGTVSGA

Structure (SMILES)	inhibition at 10 µM (CYP3A4)	melting point	IC50 (sodium channel; activity level class)	IC50 (sodium channel)
O=C1N(Cc2ccc(Cl)s2)c2cccc(Br)c2C12COc1cc3c(cc12)OCO3 (stereo not drawn) [Example 4.86, 4′-bromo-1′-[1(5-chloro-2-thienyl)methyl]spiro[furo[2,3-f][1,3]benzodioxole-7,3′-indol]-2′(1′H)-one]	> 50%	85 to 87 °C	1 to 100 nM	
CC(C)CCN1C(=O)C2(COc3cc4c(cc32)OCCO4)c2c1ccc1ncsc21 (stereo not drawn) [Example 2.24, 6′-isopentyl-3,7-dihydro-2H-spiro[benzofuro[5,6-b][1,4]dioxine-8,8′-thiazolo[5,4-e]indol]-7′(6′H)-one]	> 50%	169 to 171 °C	1 to 100 nM	
O=C1N(Cc2nc3ncccc3o2)c2ccccc2C12COc1cc3c(cc12)OCO3 (stereo not drawn) [Example 6.8, 1′-([1,3]oxazolo[4,5-b]pyridin-2-ylmethyl)spiro[furo[2,3-f][1,3]benzodioxole-7,3′-indol]-2′(1′H)-one]	< 50%	202 to 204 °C	1 to 100 nM	
COc1cc2c(cc1C#N)C1(CO2)C(=O)N(Cc2ccccn2)c2ccccc21 (stereo not drawn) [Example 9.47, 6-methoxy-2′-oxo-1′-(pyridin-2-ylmethyl)-1′,2′-dihydrospiro[1-benzofuran-3,3′-indole]-5-carbonitrile]	> 50%	187 to 189 °C	1000 to 10000 nM	
Cn1c(=O)oc2cc3c(cc21)OCC31C(=O)N(C[C@H]2CCCO2)c2ccccc21 (stereo partly drawn) [Example 8.14, 3-methyl-1′-(((R)-tetrahydrofuran-2-yl)methyl)-2H-spiro[benzofuro[6,5-d]oxazole-7,3′-indoline]-2,2′(3H,6H)-dione]	< 50%	186 to 187 °C	1000 to 10000 nM	
O=C1N(Cc2noc(C(F)(F)F)n2)c2ccccc2C12COc1cc3c(cc12)OCCO3 (stereo not drawn) [Example 11.90, 1′-{[5-(trifluoromethyl)-1,2,4-oxadiazol-3-yl]methyl}-2,3-dihydrospiro[furo[2,3-g][1,4]benzodioxine-8,3′-indol]-2′(1′H)-one]	> 50%	159 to 160 °C		1 to 100 nM
O=C(O)c1cccc(CN2C(=O)C3(COc4cc5c(cc43)CCO5)c3ccccc32)c1 (stereo not drawn) [Example 11.12, 3-[(2′-oxo-5,6-dihydrospiro[benzo[1,2-b:5,4-b′]difuran-3,3′-indol]-1′(2′H)-yl)methyl]benzoic acid]	< 50%	> 250 °C		1000 to 10000 nM
CN(C)c1ccc(-c2cccc3c2C2(COc4cc5c(cc42)OCO5)C(=O)N3Cc2ccc(Cl)s2)cn1 (stereo not drawn) [Example 16.12, 1′-[(5-chloro-2-thienyl)methyl]-4′-[6-(dimethylamino)pyridin-3-yl]spiro[furo[2,3-f][1,3]benzodioxole-7,3′-indol]-2′(1′H)-one]	> 50%	215 to 218 °C		100 to 1000 nM
Nc1noc2cc3c(cc12)C1(CO3)C(=O)N(Cc2ccccn2)c2ccccc21 (stereo not drawn) [Example 44.1, 3-amino-1′-(pyridin-2-ylmethyl)spiro[furo[3,2-f][1,2]benzisoxazole-5,3′-indol]-2′(1′H)-one]	< 50%	190 to 192 °C		100 to 1000 nM
O=C1N(C[C@H]2CCCO2)c2c(Cl)cccc2C12COc1cc3c(cc12)CCO3 (stereo partly drawn) [Example 8.1, 7′-chloro-1′-[(2R)-tetrahydrofuran-2-ylmethyl]-5,6-dihydrospiro[benzo[1,2-b:5,4-b′]difuran-3,3′-indol]-2′(1′H)-one]	< 50%	192 to 193 °C	100 to 1000 nM	
O=C1N(Cc2ncccc2C(F)(F)F)c2ccccc2C12COc1cc3[nH]ncc3cc12 (stereo not drawn) [Example 46.2, 1′-((3-(trifluoromethyl)pyridin-2-yl)methyl)-1,6-dihydrospiro[furo[3,2-f]indazole-5,3′-indolin]-2′-one]	> 50%	152 to 154 °C		100 to 1000 nM
Cc1nnc(-c2ccc(CN3C(=O)C4(COc5cc6c(cc54)CCO6)c4ccccc43)cc2)[nH]1 (stereo not drawn) [Example 11.29, 1′-[4(5-methyl-4H-1,2,4-triazol-3-yl)benzyl]-5,6-dihydrospiro[benzo[1,2-b:5,4-b′]difuran-3,3′-indol]-2′(1′H)-one]	> 50%	169 to 180 °C		100 to 1000 nM
COC(=O)c1ccc(CN2C(=O)C3(COc4cc5c(cc43)OCCO5)c3ccccc32)cc1 (stereo not drawn) [Example 9.59, methyl 4-[(2′-oxo-2,3-dihydrospiro[furo[2,3-g][1,4]benzodioxine-8,3′-indol]-1′(2′H)-yl)methyl]benzoate]	< 50%	167 to 169 °C		1 to 100 nM
CC(C)c1nc(CN2C(=O)C3(COc4cc5c(cc43)OCO5)c3c(Cl)cccc32)cs1 (stereo not drawn) [Example 4.91, 4′-chloro-1′-[(2-isopropyl-1,3-thiazol-4-yl)methyl]spiro[furo[2,3-f][1,3]benzodioxole-7,3′-indol]-2′(1′H)-one]	> 50%	147 to 148 °C	1 to 100 nM	
Cc1noc2cc3c(cc12)C1(CO3)C(=O)N(Cc2ncccc2C(F)(F)F)c2ccccc21 (stereo not drawn) [Example 9.42, 3-methyl-1′-{[3-(trifluoromethyl)pyridin-2-yl]methyl}spiro[furo[3,2-f][1,2]benzisoxazole-5,3′-indol]-2′(1′H)-one]	> 50%	221 to 222 °C	100 to 1000 nM	
CN1C(=O)CC[C@H]1CN1C(=O)C2(COc3cc4c(cc32)CCO4)c2ccccc21 (stereo partly drawn) [Example 11.70, 1′-{[(2S)-1-methyl-5-oxopyrrolidin-2-yl]methyl}-5,6-dihydrospiro[benzo[1,2-b:5,4-b′]difuran-3,3′-indol]-2′(1′H)-one]	> 50%	72 to 76 °C		1000 to 10000 nM
COCCOc1ccc2c(c1)OCC21C(=O)Nc2ccccc21 (stereo not drawn) [Example 3.46, 6-(2-methoxyethoxy)spiro[1-benzofuran-3,3′-indol]-2′(1′H)-one]	< 50%	172 to 174 °C	1000 to 10000 nM	
Cc1cc2c(cc1C)C1(CO2)C(=O)Nc2ccccc21 (stereo not drawn) [Example 3.3, 5,6-dimethylspiro[1-benzofuran-3,3′-indol]-2′(1′H)-one]	> 50%	206 to 207 °C	100 to 1000 nM	
CN(C)c1ccc(CN2C(=O)C3(COc4cc5c(cc43)OCCO5)c3ccccc32)cn1 (stereo not drawn) [Example 32.1, 1′-{[6-(dimethylamino)pyridin-3-yl]methyl}-2,3-dihydrospiro[furo[2,3-g][1,4]benzodioxine-8,3′-indol]-2′(1′H)-one]	< 50%	93 to 95 °C		1 to 100 nM
Cl.O=C1N(CCCNCC(F)(F)F)c2ccccc2C12COc1cc3c(cc12)CCO3 (stereo not drawn) [Example 15.3, 1′-{3-[(2,2,2-trifluoroethyl)amino]propyl}-5,6-dihydrospiro[benzo[1,2-b:5,4-b′]difuran-3,3′-indol]-2′(1′H)-one hydrochloride]	> 50%	124 to 126 °C		100 to 1000 nM
Cc1onc(-c2c(Cl)cccc2Cl)c1CN1C(=O)C2(COc3cc4c(cc32)OCO4)c2ccccc21 (stereo not drawn) [Example 6.4, 1′-{[3-(2,6-dichlorophenyl)-5-methylisoxazol-4-yl]methyl}spiro[furo[2,3-f][1,3]benzodioxole-7,3′-indol]-2′(1′H)-one]	> 50%	190 to 192 °C	1000 to 10000 nM	
CC(O)CCN1C(=O)C2(COc3cc4c(cc32)CCO4)c2ccccc21 (stereo not drawn) [Example 14.4, 1′-(3-hydroxybutyl)-5,6-dihydrospiro[benzo[1,2-b:5,4-b′]difuran-3,3′-indol]-2′(1′H)-one]	< 50%	64 to 66 °C		100 to 1000 nM
CN(C)c1ccc(-c2cccc3c2C2(COc4cc5c(cc42)OCO5)C(=O)N3)cn1 (stereo not drawn) [Example 16.14, 4′-[6-(dimethylamino)pyridin-3-yl]spiro[furo[2,3-f][1,3]benzodioxole-7,3′-indol]-2′(1′H)-one]	> 50%	> 245 °C		1000 to 10000 nM
O=C1N(Cc2sccc2Cl)c2ccccc2C12COc1cc3c(cc12)OCO3 (stereo not drawn) [Example 6.3, 1′-[(3-chlorothiophen-2-yl)methyl]spiro[furo[2,3-f][1,3]benzodioxole-7,3′-indol]-2′(1′H)-one]	> 50%	161 to 163 °C	1 to 100 nM	
O=C1N(Cc2ccccn2)c2ccc(Br)cc2C12COc1cc3c(cc12)OCCO3 (stereo not drawn) [Example 2.49, 5′-bromo-1′-(pyridin-2-ylmethyl)-2,3-dihydrospiro[furo[2,3-g][1,4]-benzodioxine-8,3′-indol]-2′(1′H)-one]	> 50%	> 250 °C	1 to 100 nM	
O=C1N(Cc2nnc(C(F)(F)F)o2)c2ccccc2C12COc1cc3c(cc12)OCCO3 (stereo not drawn) [Example 11.92, 1′-{[5-(trifluoromethyl)-1,3,4-oxadiazol-2-yl]methyl}-2,3-dihydrospiro[furo[2,3-g][1,4]benzodioxine-8,3′-indol]-2′(1′H)-one]	< 50%	137 to 139 °C		1 to 100 nM
N#Cc1cccc(CN2C(=O)C3(COc4cc5c(cc43)OCCO5)c3ccccc32)n1 (stereo not drawn) [Example 41, 6-[(2′-oxo-2,3-dihydrospiro[furo[2,3-g][1,4]benzodioxine-8,3′-indol]-1′(2′H)-yl)methyl]pyridine-2-carbonitrile]	< 50%	213 to 215 °C		1 to 100 nM
